This is an account of results in patent publication US20240085403A1, “METHOD FOR INHIBITING ADVENTITIOUS VIRAL INFECTION” (Allogene Therapeutics, Inc., priority 2022, published 2024).

The test system of data set [1] is HHV-6. Kind of data set: HHV-6 U65 gene copies by qPCR in iciHHV6 PBMCs treated with antiviral agents. The data set is classed as cell-based, Human herpesvirus 6. Conditions: 15 days culture, concentrations of Table 2. The text has this:
(§1) We next examined the effects of other known antiviral agents on controlling HHV-6 reactivation using PBMCs with integrate HHV-6 genomes (iciHHV6) to mimic continuous low levels of HHV-6 infection. Ganciclovir, cidofovir and foscarnet are all small molecule inhibitors of HHV viral DNA polymerase. Artesunate is a small molecule antiviral agent targeting HHV immediate early genes. […] See e.g., hhv-6foundation.org/research/hhv-6-antiviral-drug-resistance; Reyman et al., 1995, Antiviral Res. 28:343-57; and Vittayawacharin et al., 2023, Transplant Cell Ther. 29:397. The cells were cultured in X-vivo supplemented media for three days before being split into 4 subcultures. Afterwards, cells were cultured for 15 additional days, with media exchange twice a week, each time containing a fresh dose of the same antiviral agent at the same initial concentration. Cell sampling was taken on different days after the antiviral agent was first added. The effect of the antiviral agent on the viability of cells were analyzed by using a cellular apoptosis screening kit (Thermo Cat #V13242),.
Next, HHV-6 replication was analyzed by detecting copies of HHV-6 gene U65 by qPCR.
(§2) Genomic DNA was extracted from cells and DNA levels of HHV-6 were determined by quantitative PCR (qPCR). The experiment was carried out using the ThermoFisher Scientific, TaqMan™ Fast Virus 1-Step Master Mix, (Catalog number: 4444434).

Data set [2] has as its system HHV-6. To be noted: in vitro anti-HHV-6 activity, literature; read-out: EC50 (Reyman 1995); cited from earlier work.
Data set [3] concerns PBMCs with integrate HHV-6 genomes (iciHHV6). The data set is classed as cell-based, human.
Source text: as §1

Data set [4] deals with HHV-6 p41. Kind of data set: Immunofluorescence of HHV-6 p41 protein in CAR T drug product culture. The data set is classed as cell-based, Human herpesvirus 6. As to the method:
To test whether HHV-6 protein expression is affected by IFNα treatment, we performed immunofluorescence using an antibody specific for HHV-6 p41, an HHV-6 early gene product, on cells collected from D4 of the Batch 1 (“HHV-6 high”) DP culture.
The cells were fixed with 4% paraformaldehyde and permeabilized using 0.5% saponin before incubating with HHV6 p41 antibody conjugated with Alexa-488 at 0.2 μg/mL. Cells were stained with DAPI prior to imaging at 20× magnification.

In data set [5] the test system is HHV-6. In words: Timing of IFNα addition before HHV-6 infection, viral DNA by qPCR. The data set is classed as cell-based, Human herpesvirus 6. Conditions: data not shown. For orientation: Quantitative PCR measures a nucleic acid by following its amplification.
Data set [6] has as its system HHV-6B (strain Z-29). Kind of data set: Small-scale CAR T process with HHV-6B infection, U31 DNA by qPCR. The data set is classed as cell-based, human herpesvirus 6B (strain Z-29). To be noted: IFNα 0.1 ng/mL, process D18. An excerpt: (§3) HHV-6 reactivation from PBMC is an extremely rare event in CAR T manufacturing based on existing data. To investigate the feasibility of using IFNα in controlling HHV-6 infectivity, we designed experiments to test the effects of IFNα in the manufacturing process by deliberately introducing active HHV-6 infection. In brief, the PBMCs from two different donors were thawed from frozen storage and cultured in complete media (5% HS+X-vivo+Supplements) for activation and LVV transduction. After electroporation of cells with TALEN mRNA, the T cells were infected with HHV-6B (strain Z-29) at MOI=0.4 for 3 hrs, then transferred to the G-Rex bioreactor for expansion for 10 days (Day 8 to Day 18). IFNα was added into the complete media at different concentrations (100 ng/mL, 10 ng/mL, 1 ng/mL and 0.1 ng/mL) on D8 after the 3 hrs of HHV-6 infection and kept in culture until the end of the expansion period. Cell samples were collected on D11, D13, D15 and D18, i.e., three, five, seven, and ten days post infection, to determine the HHV-6 virus infectivity by RT-qPCR assay (FIG. 4B), flow cytometry detection (FIG. 4C), and qPCR assay (FIG. 4D). Description of RT-qPCR assay, flow cytometry, and genomic DNA qPCR assay are shown in Materials & Methods. […]
Genomic DNA was extracted from cells and DNA levels of HHV-6 were determined by quantitative PCR (qPCR). […]

The subject of data set [7] is HHV-6 viral antigen p41. In words: Small-scale CAR T process with HHV-6B infection, p41 viral antigen by flow cytometry. In kind it is cell-based, human herpesvirus 6B (strain Z-29). To be noted: IFNα 0.1 ng/mL, D18, both donors.
Source text: as §3, with “4D).” for “4D). Description of RT-qPCR assay, flow cytometry, and genomic DNA qPCR assay are shown in Materials & Methods.”
HHV6 infectivity was determined by intracellular staining using antibody against HHV-6 p41 protein at 1 μg/mL and FACS analysis was performed to determine the percent of cells expressing the viral protein.
(In flow cytometry, cells or beads pass a laser one at a time.)

The subject of data set [8] is CAR T cells.
The test system of data set [9] is CAR T cells. In words: CAR T cell expansion, % CAR+ and phenotype under IFNα in the HHV-6 infection model. Conditions: IFNα 0.1 ng/mL to 10 ng/mL, added Day 8 to Day 18.
The test system of data set [10] is HHV-6B (strain Z-29). In words: Small-scale CAR T process with HHV-6B infection, viral RNA (U79, U90, U100) by RT-qPCR. The data set is classed as cell-based, human herpesvirus 6B (strain Z-29).
Source text: as §3, with “4D).” for “4D). Description of RT-qPCR assay, flow cytometry, and genomic DNA qPCR assay are shown in Materials & Methods.”
Total RNA was extracted from cells and analyzed using reverse transcription qPCR (RT-qPCR) assay for U79, U90, U100 and GAPDH genes to determine HHV-6 infectivity.

Data set [11] concerns HHV-6. In words: HHV-6 U31 viral DNA by qPCR in thawed CAR T drug product cultured with IFNα. The data set is classed as cell-based, Human herpesvirus 6. Conditions: both lots of DP (Batch 1 HHV-6 high, Batch 2 low); IFNα 0.01, 1, 100 ng/mL; D1-D7.
Source text: Drug product (DP) for experiment was selected based on the results of screening for HHV-6, among other adventitous agents, at the end of cell engineering process. Batch #1 was one of a few rare occurrences of DP with “positive” levels of HHV-6 and was chosen for the following studies (designated as the “HHV-6 high” group), while Batch #2 was chosen as the “low”-level counterpart. DP vials were retrieved from LN2, thawed and each split into 4 day 0 (D0) flasks. We first tested the effects of a type I IFN, such as IFNα, on the replication and infectivity of HHV-6. Flasks received either complete media (X-vivo +5% human serum (HS)+supplements) or complete media with added IFNα (human IFN-α2a at 100 ng/mL, 1 ng/mL and 0.01 ng/mL, Miltenyi). Cells were cultured for 7 additional days (D1-D7), with daily collections of cells from all conditions for freezing. Media was replaced every three days, with or without added IFNα for corresponding flasks.
Post-cell culture, DNA was extracted from the collected samples, and analyzed by qPCR for HHV-6 marker U31 as described in Material & Methods.
as §2

Data set [12] concerns HHV-6B in CEM-HHV6 cells. In words: CEM-HHV6 latency/reactivation model, HHV-6 qPCR after sodium butyrate and PMA reactivation. The data set is classed as cell-based, human herpesvirus 6B (strain Z-29).
Description: We next tested whether viral reactivation can be induced in the latency cell culture model. CEM-HHV6 cells (1×10^7) were reactivated using 100 ng/mL of PMA (phorbol-12-myristate-13-acetate, Cat #500582 Millipore-Sigma) and 1 mM NaButyrate (Cat #19-137, Millipore-Sigma) final concentration for 2 days at 37° C. On day 2 cells were washed and resuspended in RPMI+5% FBS and cultured for 18 days. Media was replenished as needed. CEM-HHV6 cells were collected on days 5, 8, 12, 14, 16, and 19 post-reactivation. HHV-6B viral reactivation was assessed by qPCR analysis of the vgDNA of HHV-6B targeting the U31 and U65-66 genes. Untreated CEM-HHV6 cells were used as a negative control.
The CEM-HHV6 reactivation model described in FIGS. 2A-F was utilized for testing the effects of IFNα in the cell culture model, similar to the testing carried out in DP (FIG. 1A). CEM-HHV6 cells were initially cultured in bulk before the start of the experiment. One day before the start of the experiment (D-1), an aliquot of the CEM-HHV6 cells was taken out and split before treatment with one of three IFNα concentrations (100 ng/mL, 1 ng/mL and 0.01 ng/mL), which constituted the “pre-treatment” of IFNα. Cells were collected from the beginning of the experiment (D0) and continuing every few days throughout. […]
Data set [13] concerns HHV-6. Kind of data set: Timing of IFNα addition before HHV-6 infection, U100 and U79 transcripts by RT-qPCR. In kind it is cell-based, Human herpesvirus 6.
Description: To mimic the rare reactivation event, PBMC-derived CAR T cells were infected with exogenous HHV-6 at an MOI of 0.4 on Day 8 of the small scale manufacturing process. Cells were treated with IFNα at a concentration of 1 ng/μL or 10 ng/μL on Day 0 (preactivation), Day 1 (activation), Day 4, or Day 6, or untreated throughout the process. All cultures were infected with HHV-6 on Day 8, regardless whether the cells were pre-treated with IFNα or left untreated.
The effects of IFNα on HHV-6 infection were analyzed in cells from two different donors. The transcripts of viral genes U100 (FIGS. 6A and 7A) and U79 (FIGS. 6B and 7B) were analyzed by RT-qPCR at the time points of three, seven and ten days post infection (i.e., on Day 11, Day 15 and Day 18 of the small scale manufacturing process). The y-axis reprepresents relative-fold change for each value compared to the endogenous GAPDH as well as untreated donor RNA (Day 0 before IFNα treatment).

For orientation: EC50 means the concentration at which the effect is half-maximal. With `O=C(O)P(=O)(O)O` [Foscarnet, foscarnet], the “HHV-6 levels (U65 gene copies by qPCR)” value in [1] is “maintain the HHV-6 levels at around their starting level”. The EC50 in data set [2] was 8.4 µM. For the same compound, the “cell health / apoptosis” value in [3] is given as “did not negatively affect cell health”.

With `C[C@H]1[C@H](OC(=O)CCC(=O)O)O[C@@H]2O[C@@]3(C)CC[C@H]4[C@H](C)CC[C@@H]1[C@@]24OO3` [Artesunate], the “HHV-6 levels (U65 gene copies by qPCR)” value in data set [1] is listed as “increased HHV-6 levels over the culture period”. For the same compound, the EC50 in [2] is 3.8 µM. Moreover, the “cell health / apoptosis” value in [3] is recorded as “induced higher level of apoptosis”.

With `Nc1nc2c(ncn2COC(CO)CO)c(=O)[nH]1` [Ganciclovir, ganciclovir], the “HHV-6 levels (U65 gene copies by qPCR)” value in data set [1] is reported as “decreased viral load initially followed by an increase at later time points”. Further, the EC50 in data set [2] was above 25 µM. In [3], the “cell health / apoptosis” value was “did not negatively affect cell health”.

As for `Nc1ccn(C[C@@H](CO)OCP(=O)(O)O)c(=O)n1` [Cidofovir, cidofovir], the “HHV-6 levels (U65 gene copies by qPCR)” value in data set [1] is listed as “increased HHV-6 levels over the culture period”. Further, the EC50 in [2] is 12 to 15 µM. In data set [3], the “cell health / apoptosis” value is on record as “induced higher level of apoptosis”.

On to “IFNα: human IFN-α2a (Miltenyi), a type I IFN; exemplary sequence SEQ ID NO: 19/20”, for which the “cells positive for HHV-6 p41 (immunofluorescence)” value in [4] (Batch 1 (HHV-6 high) DP culture, D4, increasing concentration of IFNα) was “fewer cells positive for HHV-6 p41”; in data set [4] (batch 2 (HHV-6 low) culture, D4, regardless of concentration used, data not shown), “no detectable HHV-6 p41 positive cells”. The “viral load as determined by qPCR” value in [5] (IFNα added on Day 6 (C7, C8)) is given as “lowest level of viral load”. Also, the “suppression of HHV-6 infection (U31 DNA qPCR)” value in data set [5] (doses of IFNα added closer to infection) is reported as “strongest suppression effect”. In addition, the “decrease of HHV-6 DNA levels (U31)” value in data set [6] is listed as 16 to 38 fold. Further, the “HHV-6 viral antigen p41 expression” value in [7] was “effectively reduced”. For the same compound, the “proliferation of CAR-T cells” value in data set [8] is “could suppress the proliferation”. Moreover, the “fold of CAR T cell expansion” value in [9] is “did not significantly affect”. In addition, the “HHV-6 viral RNA” value in data set [10] (IFNα 10 ng/mL, D18) is reported as “below detectable levels”. Moreover, in data set [10] (donor #1, lowest concentration of IFNα, D11 to D18), the “HHV-6 RNA levels (U79, U90, U100)” value is recorded as “decreased from D11 to D18”. For the same compound, the “HHV-6 viral DNA (U31) fold-change relative to D0” value in data set [11] was “reduction in the viral load compared to the control”. Besides, the “viral DNA, reactivated (RA) versus non-reactivated (NRA) samples” value in [12] (IFNα 100 ng/mL) was “virtually no distinction between the NRA and the RA samples”. Also, in data set [12] (as the IFNα dosage increased (0.01, 1, 100 ng/mL), pre- or post-treatment), the “level of viral growth (HHV-6 DNA qPCR)” value is reported as “the level of viral growth was reduced”. The U79 transcript result in data set [13] (IFNα added on Day 4 or Day 6 (samples C5-C8)) is “decreased transcript”. Further, in data set [13] (IFNα added on Day 6 (conditions C7, C8; 10 and 1 ng/μL), infection Day 8, compared to C9), the U100 transcript level entry is recorded as “greatest reduction of U100 transcript level”.
